This is an account of results in PMC4782294, “ERK mediated upregulation of death receptor 5 overcomes the lack of p53 functionality in the diaminothiazole DAT1 induced apoptosis in colon cancer models: efficiency of DAT1 in Ras-Raf mutated cells” (Molecular Cancer, 2016).

Data set [1] has as its system HCT116 p53 -/-. In words: MTT cytotoxicity assay. Type of data set: cell-based. The following applies: Homo sapiens, HCT-116, 48 h. How it is done:
(§1) Cells were seeded in 96 well plates. At about70 % confluency, they were treated with different concentrations of drugs either individually or in combination. After 48 h, MTT assay was done (Mossmann 1983) and absorbance was measured at 570 nm (Biorad Microplate reader). Percentage viability was plotted against the respective concentrations of the drugs and half inhibitory concentration (IC50) was calculated with the non linear regression programme of Origin.

The subject of data set [2] is HT 29. In words: MTT cytotoxicity assay. Type of data set: cell-based. The following applies: Homo sapiens, HT 29, 48 h. As to the method:
as §1
For orientation: Tetrazolium dyes change colour on reduction, which living cells bring about.

For data set [3], the system named is SW 620. Put plainly: MTT cytotoxicity assay. Type of data set: cell-based. The following applies: Homo sapiens, SW 620, 48 h. As to the method:
as §1

Data set [4] concerns SW 480. In words: MTT cytotoxicity assay. The data set is classed as cell-based. Conditions: Homo sapiens, SW480, SW 480, 48 h. How it is done: as §1
Data set [5] relates to HCT116. Put plainly: MTT cytotoxicity assay. The data set is classed as cell-based. The following applies: Homo sapiens, HCT-116, HCT116, 48 h. As to the method: as §1
Data set [6] concerns HCT116 xenograft tumours. Put plainly: Colon cancer xenograft study. Type of data set: in vivo, SCID/NOD mice. How it is done: (§2) SCID/NOD mice were divided into groups of ten and allowed to acclimatize. After 5 days, tumours were raised by injecting HCT116 or HCT116 p53 −/− cells (1.5 × 10^5 cells suspended in PBS) subcutaneously in the inner flank region. Once the tumour volumes reached 20–80 mm^3, drug was administered intraperitoneally, thrice a week at different concentrations.

Data set [7] deals with HCT116 p53 −/− xenograft tumours. Put plainly: Colon cancer xenograft study. The data set is classed as in vivo, SCID/NOD mice. As to the method:
as §2

For data set [8], the system named is ERK. Put plainly: ERK activation by western blotting. Type of data set: cell-based. As to the method:
(§3) Cells were grown to 70–80 % confluency in 60 mm culture dishes. After drug treatment, they were harvested and lysed. Protein samples from tissues were collected by homogenizing the tissue in the presence of lysis buffer, followed by centrifugation for 20 min. The protein samples were run in a 10–12 % gel and transferred on to a PVDF membrane. The membranes were probed with specific primary antibodies (1:1000) overnight followed by secondary antibodies conjugated with horse radish peroxidase/alkaline phosphatase (1:2000) for 1 hr at room temperature and were developed by chemiluminescence or alkaline phosphatase method.

Data set [9] deals with Swiss Albino mice. In words: Acute toxicity study. Type of data set: in vivo. Conditions: for Final weight: after 14 days; for Initial weight: before drug administration. How it is done:
In acute toxicity studies, Swiss Albino mice were divided in to six groups of six animal each and DAT1 (12–50 mg/kg) was administered intraperitoneally (i.p) and observed for 14 days for signs of weight loss, dehydration or mortality. DAT1 was dissolved in vehicle cremaphor:ethanol (1:1) and diluted in 0.9 % saline.
Swiss Albino mice were divided into 6 groups of 6 mice each and were injected with either DAT1 or vehicle intraperitoneally. […] Group I: 12mg/kg, Group II: 20 mg/kg, Group III: 30 mg/kg, Group IV: 40 mg/kg, Group V: 50 mg/kg

Data set [10] has as its system caspase 8. Put plainly: Caspase 8 activation by western blotting. The data set is classed as cell-based. The following applies: cell lines irrespective of their p53 status. As to the method:
as §3
In general terms: In western blotting, separated proteins are transferred to a membrane and probed.

Data set [11] has as its system DR5. In words: DR5 induction by western blotting. Conditions: cells with non functional p53 (HCT116 p53 −/−, SW620, SW480, HT29), ~1.5 X IC50. Type of data set: cell-based. As to the method: as §3
The subject of data set [12] is Colo 320 DM. In words: MTT cytotoxicity assay. Type of data set: cell-based. Conditions: Homo sapiens, 48 h. As to the method: as §1
In data set [13] the test system is Caco 2. Put plainly: MTT cytotoxicity assay. Type of data set: cell-based. The following applies: Homo sapiens, Caco 2, 48 h. As to the method: as §1
Data set [14] concerns Swiss Albino mice. In words: Sub-acute toxicity study. Conditions: for RBC / WBC / ALP / ALT / AST / BUN / Creatinine: 3 months; for ALP / ALT / AST / BUN / Creatinine: serum. Type of data set: in vivo. As to the method:
In sub-acute toxicity studies, Swiss albino mice were divided into five groups of eight animals each. Three groups of Swiss Albino mice were administered (i.p injection) with 4, 8 or 16 mg/kg DAT1, and the control and vehicle control groups were administered with 0.9 % saline or vehicle respectively. Injections were given every alternate day for the first 10 days and after that, twice weekly for a period of 3 months. After 3 months animals were sacrificed and whole blood, liver and kidney were collected. Hematotoxicity was checked by RBC and WBC count. Hepatotoxicity was measured by monitoring the serum ALT and AST levels. Nephrotoxicity was measured by monitoring BUN and creatinine levels in the serum. ALP activity was measured for detection of liver or bone toxicity.

The subject of data set [15] is HCT116 p53 −/−. Put plainly: DAPI staining for detection of apoptosis (chromatin condensation). Type of data set: cell-based. As to the method: (§4) The cells were grown on coverslips in 24 well plates and incubated with respective drug or inhibitor for 24 h. They were then washed with PBS, fixed with chilled methanol-EDTA for 10 min and rehydrated with PBS for 10 min at room temperature. Successively, the cells were treated with DAPI (0.5 μg/ml) for 2 min in the dark. The coverslips were then mounted on fluoromount G and viewed at 40X in the UV region using a fluorescence microscope (Olympus IX71).

Data set [16] relates to Colo 320 DM. The description is as above. Type of data set: cell-based. The following applies: approximately 1.5 times the IC50 concentration, 24 h. As to the method:
as §4

Data set [17] relates to Caco2. The data set is described as above. Type of data set: cell-based. The following applies: Caco2, approximately 1.5 times the IC50 concentration, 24 h. As to the method: as §4
Data set [18] deals with HCT116. The data set is described as above. The data set is classed as cell-based. How it is done:
as §4

Molecules are shown by their SMILES.

In general, IC50 refers to the concentration that inhibits the measured activity by half.

On to `O=c1[nH]cc(F)c(=O)[nH]1` [5 fluoro uracil, 5-fluorouracil], for which the IC50 in data set [1] was found to be 19300 ± 1340 nM; in data set [2], 20200 ± 770 nM; in data set [3], 9650 ± 330 nM; in [4], 18600 ± 680 nM; in data set [5] it was 8690 ± 540 nM.

In the case of `COc1ccc(Nc2nc(N)c(C(=O)c3ccccc3)s2)cc1` [DAT1, 4-Amino-5-benzoyl-2-(4-methoxyphenylamino)thiazole], the tumour inhibition is 72.3% in data set [6] (HCT116 tumours, 20 mg/kg i.p., thrice a week, 28 days) and 53.4% in [7] (HCT116 p53 −/− tumours, 20 mg/kg i.p., thrice a week, 28 days). Further, the mean tumour volume entry was “reduced the mean tumour volume effectively in a concentration dependent way” in [6] (HCT116 xenograft, treatment for 28 days, i.p.) and “reduced the mean tumour volume effectively in a concentration dependent way” in [7] (HCT116 p53−/− xenograft, treatment for 28 days, i.p.). Also, the “reduction in tumour inhibition vs parental HCT116” value in data set [7] (20 mg/kg) is “about 19%”. Besides, in data set [8] (Colo 320 DM or Caco2 cell lines with wild type Ras or Raf, ~1.5 times IC50), the ERK activation entry is listed as “unable to activate ERK”. In addition, in data set [8] (HCT116 and HCT116 p53−/− cells), the P-ERK activation entry is “caused P-ERK activation”. Moreover, the Final weight in [9] (12 mg/kg i.p.) stood at 33.1 ± 1.56 g; in data set [9] (20 mg/kg i.p.) it was 33.46 ± 3.87 g; in data set [9] (30 mg/kg i.p.), 29.86 ± 2.82 g; in data set [9] (40 mg/kg i.p.), 27.8 ± 2.67 g; in data set [9] (50 mg/kg i.p.) it was 26.12 ± 2.14 g. In addition, the Initial weight came to 32.4 ± 1.34 g in [9] (12 mg/kg i.p.); 32.8 ± 5.44 g in data set [9] (20 mg/kg i.p.); 27.2 ± 1.22 g in data set [9] (30 mg/kg i.p.); 26.6 ± 2.4 g in data set [9] (40 mg/kg i.p.); 25.6 ± 2.03 g in [9] (50 mg/kg i.p.). The “caspase 8 activation” value in [10] was “caused caspase 8 activation”. The DR5 upregulation entry in data set [11] is given as “caused DR5 upregulation”. Besides, the IC50 came out at 709 ± 80 nM in data set [1]; 200 ± 80 nM in [2]; 420 ± 70 nM in [3]; 655 ± 48 nM in data set [12]; 5320 ± 162 nM in data set [13]; 795 ± 90 nM in data set [4]. For the same compound, the IC50 in data set [5] was determined as 300 ± 80 nM. For the same compound, the RBC is on record as 4.42 ± 0.75 million/mm^3 in data set [14] (4 mg/kg i.p.), 4.48 ± 0.34 million/mm^3 in data set [14] (8 mg/kg i.p.) and 4.475 ± 0.26 million/mm^3 in data set [14] (16 mg/kg i.p.). In addition, the WBC in data set [14] (4 mg/kg i.p.) is given as 8100 ± 1979 per mm^3; in data set [14] (8 mg/kg i.p.), 6220 ± 1626.34 per mm^3; in data set [14] (16 mg/kg i.p.) it was 4550 ± 264.575 per mm^3. Besides, the ALP is 158.32 ± 8.32 U/L in data set [14] (4 mg/kg i.p.), 136.48 ± 10.69 U/L in data set [14] (8 mg/kg i.p.) and 155.61 ± 15.15 U/L in [14] (16 mg/kg i.p.). Also, the ALT in [14] (4 mg/kg i.p.) is 54.38 ± 4.15 U/L; in [14] (8 mg/kg i.p.), 53.845 ± 4.81 U/L; in data set [14] (16 mg/kg i.p.), 148.39 ± 14.55 U/L. In addition, the AST came to 128 ± 25.1 U/L in data set [14] (4 mg/kg i.p.), 128.165 ± 1.87 U/L in [14] (8 mg/kg i.p.) and 162.67 ± 12.73 U/L in data set [14] (16 mg/kg i.p.). Moreover, the BUN in data set [14] (4 mg/kg i.p.) was determined as 29.8 ± 1.25 mg/dL; in [14] (16 mg/kg i.p.) it was 29.8 ± 1.27 mg/dL. The values for the Creatinine in data set [14] (4 mg/kg i.p.), in data set [14] (8 mg/kg i.p.) and in data set [14] (16 mg/kg i.p.) were 0.82 ± 0.1 mg/dL, 0.76 ± 0.07 mg/dL and 0.58 ± 0.09 mg/dL, respectively. For the same compound, the body weight change result in data set [14] (4, 8 or 16 mg/kg i.p., end of 3 months) is “no significant change in the weight”. The “percentage of apoptotic cells” value in data set [15] (DAT1 alone, 24 h) is given as 60%; in [15] (DAT1 in the presence of MEK inhibitor U0126) it was 5%; in [18] (HCT116, DAT1 alone, 24 h), 67%; in [18] (HCT116, DAT1 in the presence of MEK inhibitor U0126), 3%. The entries for the “apoptosis (chromosome condensation)” value in data set [16] and in data set [17] were 38% and 32%, respectively.

For the compound `CC(=O)O[C@H]1C(=O)[C@@]2(C)[C@H]([C@H](OC(=O)c3ccccc3)[C@]3(O)C[C@H](OC(=O)[C@H](O)[C@@H](NC(=O)c4ccccc4)c4ccccc4)C(C)=C1C3(C)C)[C@]1(OC(C)=O)CO[C@@H]1C[C@@H]2O` [Taxol, paclitaxel], the IC50 in [1] worked out at 6 ± 2 nM; in data set [2] it was 10 ± 1.4 nM; in [3], 24.5 ± 6 nM; in [4], 31.5 ± 1.4 nM; in [5], 14 ± 7 nM.

With `CC[C@]1(O)C[C@@H]2CN(CCc3c([nH]c4ccccc34)[C@@](C(=O)OC)(c3cc4c(cc3OC)N(C)[C@H]3[C@@](O)(C(=O)OC)[C@H](OC(C)=O)[C@]5(CC)C=CCN6CC[C@]43[C@@H]65)C2)C1` [Vinblastine], the IC50 is 19.5 ± 0.7 nM in [1]; 1.5 ± 0.7 nM in [2]; 300 ± 90 nM in data set [3]; 3380 ± 247 nM in data set [4]; 4 ± 2 nM in [5]. Also, the apoptosis induction entry in data set [15] (0.01 μM, 24 h) is given as “failed to induce apoptosis”; in data set [18] (HCT116 p53 wild type, 0.01 μM, 24 h) it was “large apoptotic response”.
